Results from US9540400B2, “Compounds as diacylglycerol acyltransferase inhibitors” (GlaxoSmithKline Intellectual Property (No. 2) Limited, priority 2011, dated 2017).

Target: T1, Human DGAT1 (Homo sapiens, UniProt O75907)
T1 construct: made in house; host or cells: Sf9 insect cells (baculovirus); microsomes
T1 sequence (O75907 1-488): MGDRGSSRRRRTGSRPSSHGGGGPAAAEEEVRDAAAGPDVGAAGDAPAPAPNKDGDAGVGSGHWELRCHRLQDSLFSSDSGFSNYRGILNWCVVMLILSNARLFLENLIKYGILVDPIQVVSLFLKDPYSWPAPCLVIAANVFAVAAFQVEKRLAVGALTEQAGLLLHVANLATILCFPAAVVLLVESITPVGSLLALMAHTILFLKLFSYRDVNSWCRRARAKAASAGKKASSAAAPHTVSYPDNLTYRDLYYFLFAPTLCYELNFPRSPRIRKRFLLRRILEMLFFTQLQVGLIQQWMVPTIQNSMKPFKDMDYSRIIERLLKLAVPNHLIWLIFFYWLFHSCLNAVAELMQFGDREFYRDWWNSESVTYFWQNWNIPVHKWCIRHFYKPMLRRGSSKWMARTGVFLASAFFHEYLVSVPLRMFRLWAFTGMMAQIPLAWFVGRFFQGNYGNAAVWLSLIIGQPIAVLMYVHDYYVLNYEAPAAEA
Test: hDGAT1 lipid extraction (LE) assay, inhibition of triacylglycerol product formation
Format: biochemical
Details: human DGAT1 microsomes from Sf9 cells; radiolabelled tridecanoylglycerol extraction
Protocol: Human DGAT1 was expressed in Sf9 insect cells using a baculovirus expression system. Microsomes were prepared and used as enzyme for in vitro inhibition testing in either of two formats measuring production of coenzyme A or tridecanoylglycerol product, respectively. All steps were performed at 21-23° C. All data for DGAT1 inhibition by test compounds were collected under conditions where product formation was linear with reaction time.
For inhibition of triacylglycerol product formation, 11 uL reactions were run in white Polyplate-384 (PerkinElmer6007300) starting with a 30 minute pre-reaction incubation of 5 uL of 2.2× enzyme and 1 uL of 100% DMSO containing test compound or control compound, {4-[4-(4-amino-7,7-dimethyl-7H-pyrimido[4,5-b][1,4]oxazin-6-yl)phenyl]cyclohexyl}acetic acid. Some assays were performed with inclusion of didecanoylglycerol in the pre-reaction incubation of test compounds and enzyme. Reactions were initiated after 30 minute pre-reaction incubation via addition of 5 uL of 2.2× substrate. Final reaction conditions consisted of 50 mM HEPES pH 7.5, 2 mM MgCl2, 1 mM CHAPS, 25 uM didecanoylglycerol, 0.5 uM decanoyl-CoA, 0.3 nCi/uL [^14C]-decanoyl-CoA or 0.5 nCi/uL [^3H]-decanoyl-CoA, 0.05-4 ug/mL microsomal protein, and 1% DMSO. Following 60 minute reaction incubation, reactions were stopped with 40 uL of 45% isopropanol and 50 mM sodium carbonate in water and mixed. Extraction of tridecanoylglycerol product was accomplished via addition of 30 uL Microscint-E (Perkin Elmer) and 2 hours of incubation (sealed). Plates were read on a Microbeta Microplate reader. Inhibition was normalized to controls containing DMSO or 10 uM {4-[4-(4-amino-7,7-dimethyl-7H-pyrimido[4,5-b][1,4]oxazin-6-yl)phenyl]cyclohexyl}acetic acid. IC50s were fitted using GraphPad Prism to a sigmoidal dose response.

IC50	SMILES
14.8 nM	CS(=O)(=O)n1ccc2cc(N3CCOc4ncnc(N)c4C3=O)ccc21 [Example 60, 4-amino-6-(1-methanesulfonyl-1H-indol-5-yl)-5H,6H,7H,8H-pyrimido[5,4-f][1,4]oxazepin-5-one]
2.1 nM	Nc1ncnc2c1C(=O)N(c1cnc3c(ccn3-c3cccc(C(F)(F)F)c3)c1)CCO2 [Example 81, 4-amino-6-{1-[3-(trifluoromethyl)phenyl]-1H-pyrrolo[2,3-b]pyridin-5-yl}-5H,6H,7H,8H-pyrimido[5,4-f][1,4]oxazepin-5-one]
